The values that follow come from patent US8927550B2, “Heterocyclic compounds as CCR1 receptor antagonists” (Boehringer Ingelheim International GmbH, priority 2009, dated 2015).

One may read the IC50 as the midpoint of a concentration-inhibition curve.

The experiment concerns the target T1, CCR1 (Homo sapiens, UniProt P32246).
T1 construct: host or cells: Non-adherent cells
T1 sequence (P32246 1-355): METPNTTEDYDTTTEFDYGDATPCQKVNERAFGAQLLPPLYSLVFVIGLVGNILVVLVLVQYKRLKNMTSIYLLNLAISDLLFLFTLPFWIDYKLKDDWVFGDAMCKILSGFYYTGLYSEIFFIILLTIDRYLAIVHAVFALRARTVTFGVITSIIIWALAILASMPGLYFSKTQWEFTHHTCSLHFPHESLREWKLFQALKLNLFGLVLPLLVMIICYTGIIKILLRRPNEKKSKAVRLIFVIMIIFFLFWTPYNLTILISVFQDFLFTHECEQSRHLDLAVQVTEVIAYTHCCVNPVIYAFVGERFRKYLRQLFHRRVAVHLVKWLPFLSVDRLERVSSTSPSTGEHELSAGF
Nature of the experiment: Calcium flux in CCR1 transfected cells, Method B (Calcium 4 dye, HAMAMATSU FDSS6000), MIP-1alpha at EC80. The class given is cell-based. As to conditions: cells stably expressing recombinant CCR1 and G-alpha-16, 30 minutes at 37 C then 30 minutes at room temperature. How it is done:
Compounds are assessed for the ability to block the interaction of CCR1 and MIP-1α in a functional cellular assay measuring calcium flux in CCR1 transfected cells.
Method B: Non-adherent cells purchased from Chemicon Corporation (HTS005C), stably expressing recombinant CCR1 and G-alpha-16 are grown in RPMI 1640 medium (Mediatech 10-080-CM) supplemented with 10% FBS, 0.4 mg/mL Geneticin and penicillin/streptomycin. On the day of the assay, the cells are loaded with Calcium 4 dye (Molecular Devices R7448) with Probenecid (Invitrogen P346400) at 8E5 cells/mL for 1 hour at room temperature. After 1 hour, they are seeded in a 384-well tissue culture-treated plate at a density of 20,000 cells/well. Appropriately diluted test compound is added to the well to achieve a top concentration of 3,000 nM (diluted 4-fold with 10 doses total). The final concentration of DMSO is 1%. The buffer is HBSS (Invitrogen 14025) with 20 mM HEPES at pH 7.4. The cells incubate 30 minutes at 37 C and then 30 minutes at room temperature. The plates are transferred to the HAMAMATSU FDSS6000 where MIP-1alpha in 1% BSA is added at the EC80 final concentration. All plates must be read within 4 hours of the start of dye-loading. Wells+/−MIP-1alpha containing diluted DMSO instead of compound serve as the controls. Data are analyzed using Activity Base software.

For `CC[C@H](NC(=O)c1cccn2c(-c3ccc(F)cc3)cnc12)c1ccc(Br)nc1` [3-(4-Fluorophenyl)-imidazo[1,2-a]pyridine-8-carboxylic acid [(S)-1-(6-bromopyridin-3-yl)-propyl]-amide], the IC50 amounted to 1340 nM. On to `CC[C@H](NC(=O)c1nncc2c1cnn2-c1ccc(F)cc1)c1ccc(S(C)(=O)=O)nc1` [1-(4-Fluorophenyl)-1H-pyrazolo[3,4-d]pyridazine-4-carboxylic acid [(S)-1-(6-methanesulfonyl-pyridin-3-yl)-propyl]-amide], for which the IC50 was 44 nM. The value for `CCC[C@H](NC(=O)c1nccn2c(-c3ccc(F)cc3)ncc12)c1cncc(S(C)(=O)=O)c1` [3-(4-Fluorophenyl)-imidazo[1,5-a]pyrazine-8-carboxylic acid [(S)-1-(5-methanesulfonyl-pyridin-3-yl)-butyl]-amide] was 6 nM; that for `CC(C)(NC(=O)c1nccn2c(-c3ccc(F)cc3)ncc12)c1ccnc(Br)c1` [3-(4-Fluorophenyl)-imidazo[1,5-a]pyrazine-8-carboxylic acid [1-(2-bromopyridin-4-yl)-1-methyl-ethyl]-amide] was 1100 nM. Turning to `CCC[C@H](NC(=O)c1cccn2c(-c3ccc(F)cc3)cnc12)c1ccc(Br)nc1` [3-(4-Fluorophenyl)-imidazo[1,2-a]pyridine-8-carboxylic acid [(S)-1-(6-bromopyridin-3-yl)-butyl]-amide], the IC50 is 1100 nM.

Take `C[C@H](NC(=O)c1nncc2c1cnn2-c1ccc(F)cc1)c1ccnc(S(C)(=O)=O)c1` [1-(4-Fluorophenyl)-1H-pyrazolo[3,4-d]pyridazine-4-carboxylic acid [(S)-1-(2-methanesulfonyl-pyridin-4-yl)-ethyl]-amide]: the IC50 turned out to be 57 nM. The value for `CS(=O)(=O)c1cc(CNC(=O)c2cncc3c2ccn3-c2ccc(F)cc2)ccn1` [1-(4-Fluorophenyl)-1H-pyrrolo[2,3-c]pyridine-4-carboxylic acid (2-methanesulfonyl-pyridin-4-ylmethyl)-amide] was 455 nM. The value for `CN1CCC(NS(=O)(=O)c2ccc(CNC(=O)c3cc(C#N)cc4c3ccn4-c3ccc(F)cc3)cc2)CC1` [6-Cyano-1-(4-fluorophenyl)-1H-indole-4-carboxylic acid 4-(1-methyl-piperidin-4-ylsulfamoyl)-benzylamide] was 18 nM; that for `CC[C@H](NC(=O)c1cc(S(C)(=O)=O)cc2c1ccn2-c1ccc(F)cc1)c1ccc(S(C)(=O)=O)nc1` [1-(4-Fluorophenyl)-6-methanesulfonyl-1H-indole-4-carboxylic acid [(S)-1-(6-methanesulfonyl-pyridin-3-yl)-propyl]-amide] was 260 nM. `CS(=O)(=O)c1cccc(CNC(=O)c2cncc3c2ccn3-c2ccc(F)cc2)c1` [1-(4-Fluorophenyl)-1H-pyrrolo[2,3-c]pyridine-4-carboxylic acid 3-methanesulfonyl-benzylamide]: the IC50 is 565 nM. Regarding `CC[C@H](NC(=O)c1cncc2c1ccn2-c1ccc(F)cc1)c1ccc(S(C)(=O)=O)nc1` [1-(4-Fluorophenyl)-1H-pyrrolo[2,3-c]pyridine-4-carboxylic acid [(S)-1-(6-methanesulfonyl-pyridin-3-yl)-propyl]-amide], the half-maximal inhibitory concentration (IC50) worked out at 21 nM. On to `CC[C@H](NC(=O)c1cccn2c(-c3ccc(F)cc3)ncc12)c1ccc(Br)nc1` [3-(4-Fluorophenyl)-imidazo[1,5-a]pyridine-8-carboxylic acid [(S)-1-(6-bromopyridin-3-yl)-propyl]-amide], for which the IC50 amounted to 29 nM. For `CS(=O)(=O)c1cccc(CNC(=O)c2cc(C#N)cc3c2ccn3-c2ccc(F)cc2)c1` [6-Cyano-1-(4-fluorophenyl)-1H-indole-4-carboxylic acid 3-methanesulfonyl-benzylamide], the IC50 turned out to be 2 nM. Regarding `CS(=O)(=O)c1cc(CNC(=O)c2nccn3c(-c4ccc(F)cc4)ncc23)ccn1` [3-(4-Fluorophenyl)-imidazo[1,5-a]pyrazine-8-carboxylic acid (2-methanesulfonyl-pyridin-4-ylmethyl)-amide], the IC50 stood at 600 nM.

Turning to `CS(=O)(=O)Nc1ccc(CNC(=O)c2cc(C#N)cc3c2ccn3-c2ccc(F)cc2)cn1` [6-Cyano-1-(4-fluorophenyl)-1H-indole-4-carboxylic acid (6-methanesulfonylamino-pyridin-3-ylmethyl)-amide], the IC50 is 4 nM.

For `CC[C@H](NC(=O)c1cccc2c(-c3ccc(F)cc3)ncn12)c1ccc(S(C)(=O)=O)nc1` [1-(4-Fluorophenyl)-imidazo[1,5-a]pyridine-5-carboxylic acid [(S)-1-(6-methanesulfonyl-pyridin-3-yl)-propyl]-amide], the IC50 was 19 nM. The value for `CCC[C@H](NC(=O)c1nccn2c(-c3ccc(F)cc3)ncc12)c1ccnc(S(C)(=O)=O)c1` [3-(4-Fluorophenyl)-imidazo[1,5-a]pyrazine-8-carboxylic acid [(S)-1-(2-methanesulfonyl-pyridin-4-yl)-butyl]-amide] was 5 nM; that for `C[C@H](NC(=O)c1cncc2c1ccn2-c1ccc(F)cc1)c1ccnc(S(C)(=O)=O)c1` [1-(4-Fluorophenyl)-1H-pyrrolo[2,3-c]pyridine-4-carboxylic acid [(S)-1-(2-methanesulfonyl-pyridin-4-yl)-ethyl]-amide] was 45 nM. `CC[C@H](NC(=O)c1cccn2c(-c3ccc(F)cc3)ncc12)c1ccc(S(C)(=O)=O)nc1` [3-(4-Fluorophenyl)-imidazo[1,5-a]pyridine-8-carboxylic acid [(S)-1-(6-methanesulfonyl-pyridin-3-yl)-propyl]-amide]: the IC50 is 17 nM. On to `CS(=O)(=O)c1cc(CNC(=O)c2nncc3c2cnn3-c2ccc(F)cc2)ccn1` [1-(4-Fluorophenyl)-1H-pyrazolo[3,4-d]pyridazine-4-carboxylic acid (2-methanesulfonyl-pyridin-4-ylmethyl)-amide], for which the IC50 was found to be 91 nM. The value for `CC[C@H](NC(=O)c1nncc2c1cnn2-c1ccc(F)cc1)c1ccnc(S(C)(=O)=O)c1` [1-(4-Fluorophenyl)-1H-pyrazolo[3,4-d]pyridazine-4-carboxylic acid [(S)-1-(2-methanesulfonyl-pyridin-4-yl)-propyl]-amide] was 3 nM. Take `CS(=O)(=O)c1cc(C2(NC(=O)c3cc(C#N)cc4c3ccn4-c3ccc(F)cc3)CC2)ccn1` [6-Cyano-1-(4-fluorophenyl)-1H-indole-4-carboxylic acid [1-(2-methanesulfonyl-pyridin-4-yl)-cyclopropyl]-amide]: the IC50 turned out to be 0.8 nM. `CS(=O)(=O)c1ccc(CNC(=O)c2cc(C#N)cc3c2ccn3-c2ccc(F)cc2)cn1` [6-Cyano-1-(4-fluorophenyl)-1H-indole-4-carboxylic acid (6-methanesulfonyl-pyridin-3-ylmethyl)-amide]: the IC50 is 4 nM.

Take `CC[C@H](NC(=O)c1cncc2c1ccn2-c1ccc(F)cc1)c1ccnc(S(C)(=O)=O)c1` [1-(4-Fluorophenyl)-1H-pyrrolo[2,3-c]pyridine-4-carboxylic acid [(S)-1-(2-methanesulfonyl-pyridin-4-yl)-propyl]-amide]: the IC50 is 2 nM. Take `CC[C@H](NC(=O)c1nccn2c(-c3ccc(F)cc3)ncc12)c1ccnc(S(C)(=O)=O)c1` [3-(4-Fluorophenyl)-imidazo[1,5-a]pyrazine-8-carboxylic acid [(S)-1-(2-methanesulfonyl-pyridin-4-yl)-propyl]-amide]: the IC50 stood at 30 nM. `CC[C@H](NC(=O)c1cccc2c(-c3ccc(F)cc3)ncn12)c1ccc(Br)nc1` [1-(4-Fluorophenyl)-imidazo[1,5-a]pyridine-5-carboxylic acid [(S)-1-(6-bromopyridin-3-yl)-propyl]-amide]: the IC50 amounted to 96 nM. Regarding `CC[C@H](NC(=O)c1cncc2c1ccn2-c1ccc(F)cc1)c1cncc(S(C)(=O)=O)c1` [1-(4-Fluorophenyl)-1H-pyrrolo[2,3-c]pyridine-4-carboxylic acid [(S)-1-(5-methanesulfonyl-pyridin-3-yl)-propyl]-amide], the half-inhibitory concentration (IC50) is 2 nM.

For the molecule `CNS(=O)(=O)c1ccc(CNC(=O)c2cc(O)cc3c2ccn3-c2ccc(F)cc2)cc1` [1-(4-Fluorophenyl)-6-hydroxy-1H-indole-4-carboxylic acid 4-methylsulfamoyl-benzylamide], the IC50 is 1400 nM. Take `CC[C@H](NC(=O)c1cncc2c1ccn2-c1ccc(F)cc1)c1cnc(S(C)(=O)=O)s1` [1-(4-Fluorophenyl)-1H-pyrrolo[2,3-c]pyridine-4-carboxylic acid [(S)-1-(2-methanesulfonyl-thiazol-5-yl)-propyl]-amide]: the IC50 was found to be 23 nM.
